Results taken from the kinase profiling compilation of Christmann-Franck et al. (2016).

Tests used:
Experiment in all cases: radiometric filter-binding kinase assay, Kinase HotSpot
Conditions in all cases: compound 0.5 µM; ATP 10 µM
DYRK1A (human) = DYRK1A (human) (UniProt Q13627)
DAPK3 (human) = DAPK3 (human) (UniProt O43293)
MAP4K5 (human) = MAP4K5 (human) (UniProt Q9Y4K4)
BLK (human) = BLK (human) (UniProt P51451)
EPHA7 (human) = EPHA7 (human) (UniProt Q15375)
SIK2 (human) = SIK2 (human) (UniProt Q9H0K1)
AKT3 (human) = AKT3 (human) (UniProt Q9Y243)
RPS6KA2 KD1 KD2 (human) = RPS6KA2 KD1 KD2 (human) (UniProt Q15349)
NEK2 (human) = NEK2 (human) (UniProt P51955)
CDK3 CCNE1 (human) = CDK3 CCNE1 (human) (UniProt Q00526+P24864)
ROS1 (human) = ROS1 (human) (UniProt P08922)
BRSK1 (human) = BRSK1 (human) (UniProt Q8TDC3)
ACVR1 (human) = ACVR1 (human) (UniProt Q04771)
RPS6KA5 KD2 (human) = RPS6KA5 KD2 (human) (UniProt O75582)
NEK3 (human) = NEK3 (human) (UniProt P51956)
RIPK2 (human) = RIPK2 (human) (UniProt O43353)
CSNK1D (human) = CSNK1D (human) (UniProt P48730)
PBK (human) = PBK (human) (UniProt Q96KB5)
IGF1R (human) = IGF1R (human) (UniProt P08069)
PRKCB2 (human) = PRKCB2 (human) (UniProt P05771)
DYRK1B (human) = DYRK1B (human) (UniProt Q9Y463)
GRK4 (human) = GRK4 (human) (UniProt P32298)
CSNK2A1 (human) = CSNK2A1 (human) (UniProt P68400)
MAPK11 (human) = MAPK11 (human) (UniProt Q15759)
DYRK4 (human) = DYRK4 (human) (UniProt Q9NR20)
CDC42BPB (human) = CDC42BPB (human) (UniProt Q9Y5S2)
MYLK2 (human) = MYLK2 (human) (UniProt Q9H1R3)
CDK7 CCNH MNAT1 (human) = CDK7 CCNH MNAT1 (human) (UniProt P50613+P51948+P51946)
FGFR4 (human) = FGFR4 (human) (UniProt P22455)
TSSK1B (human) = TSSK1B (human) (UniProt Q9BXA7)
PLK3 (human) = PLK3 (human) (UniProt Q9H4B4)
WEE1 (human) = WEE1 (human) (UniProt P30291)
FLT3 (human) = FLT3 (human) (UniProt P36888)
EPHA5 (human) = EPHA5 (human) (UniProt P54756)
ADRBK2 (human) = ADRBK2 (human) (UniProt P35626)
TLK2 (human) = TLK2 (human) (UniProt Q86UE8)
SGK3 (human) = SGK3 (human) (UniProt Q96BR1)
ABL1 (human) = ABL1 (human) (UniProt P00519)
CSNK1G2 (human) = CSNK1G2 (human) (UniProt P78368)
CAMK1G (human) = CAMK1G (human) (UniProt Q96NX5)
CDK5 CDK5R1 p25 (human) = CDK5 CDK5R1 p25 (human) (UniProt Q00535+Q15078)

Chain of FGFR4 (human) (P22455 whole entry, looked up): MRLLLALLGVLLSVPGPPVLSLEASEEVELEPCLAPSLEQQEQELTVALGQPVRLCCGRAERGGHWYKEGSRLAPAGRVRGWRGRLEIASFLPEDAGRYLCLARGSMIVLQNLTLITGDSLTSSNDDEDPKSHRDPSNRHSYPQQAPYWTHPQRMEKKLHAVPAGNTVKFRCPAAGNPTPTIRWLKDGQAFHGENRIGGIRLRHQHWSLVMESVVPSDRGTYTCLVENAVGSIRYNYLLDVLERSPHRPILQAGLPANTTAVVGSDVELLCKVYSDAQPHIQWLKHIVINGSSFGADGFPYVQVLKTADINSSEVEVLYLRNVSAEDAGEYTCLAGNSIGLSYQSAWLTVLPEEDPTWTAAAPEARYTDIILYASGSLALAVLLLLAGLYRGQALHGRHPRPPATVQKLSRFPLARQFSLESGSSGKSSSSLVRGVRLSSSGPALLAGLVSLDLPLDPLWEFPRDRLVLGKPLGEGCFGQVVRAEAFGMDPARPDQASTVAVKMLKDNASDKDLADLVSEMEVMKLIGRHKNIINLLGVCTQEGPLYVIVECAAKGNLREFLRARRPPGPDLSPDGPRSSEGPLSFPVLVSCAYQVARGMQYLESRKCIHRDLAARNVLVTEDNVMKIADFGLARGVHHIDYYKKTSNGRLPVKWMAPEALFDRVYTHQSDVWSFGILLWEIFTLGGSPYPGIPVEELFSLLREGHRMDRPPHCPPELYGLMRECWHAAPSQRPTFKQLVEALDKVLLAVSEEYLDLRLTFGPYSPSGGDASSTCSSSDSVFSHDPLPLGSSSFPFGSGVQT
Chain of GRK4 (human) (P32298 whole entry, looked up): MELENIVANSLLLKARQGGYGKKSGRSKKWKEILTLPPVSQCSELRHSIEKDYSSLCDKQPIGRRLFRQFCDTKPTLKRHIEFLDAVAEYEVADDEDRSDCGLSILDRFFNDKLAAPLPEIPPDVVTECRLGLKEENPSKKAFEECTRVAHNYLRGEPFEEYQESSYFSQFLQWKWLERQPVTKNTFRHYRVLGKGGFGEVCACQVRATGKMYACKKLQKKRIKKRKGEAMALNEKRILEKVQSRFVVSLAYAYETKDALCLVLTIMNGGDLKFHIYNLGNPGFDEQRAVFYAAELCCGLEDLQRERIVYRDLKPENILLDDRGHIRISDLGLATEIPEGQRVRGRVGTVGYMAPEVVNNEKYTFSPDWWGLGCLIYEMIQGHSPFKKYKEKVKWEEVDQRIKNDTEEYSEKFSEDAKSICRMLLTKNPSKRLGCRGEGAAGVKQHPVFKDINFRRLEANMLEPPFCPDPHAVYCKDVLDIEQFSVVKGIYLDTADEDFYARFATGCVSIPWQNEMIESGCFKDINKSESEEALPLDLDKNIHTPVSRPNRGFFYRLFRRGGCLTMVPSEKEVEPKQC
Chain of MAP4K5 (human) (Q9Y4K4 whole entry, looked up): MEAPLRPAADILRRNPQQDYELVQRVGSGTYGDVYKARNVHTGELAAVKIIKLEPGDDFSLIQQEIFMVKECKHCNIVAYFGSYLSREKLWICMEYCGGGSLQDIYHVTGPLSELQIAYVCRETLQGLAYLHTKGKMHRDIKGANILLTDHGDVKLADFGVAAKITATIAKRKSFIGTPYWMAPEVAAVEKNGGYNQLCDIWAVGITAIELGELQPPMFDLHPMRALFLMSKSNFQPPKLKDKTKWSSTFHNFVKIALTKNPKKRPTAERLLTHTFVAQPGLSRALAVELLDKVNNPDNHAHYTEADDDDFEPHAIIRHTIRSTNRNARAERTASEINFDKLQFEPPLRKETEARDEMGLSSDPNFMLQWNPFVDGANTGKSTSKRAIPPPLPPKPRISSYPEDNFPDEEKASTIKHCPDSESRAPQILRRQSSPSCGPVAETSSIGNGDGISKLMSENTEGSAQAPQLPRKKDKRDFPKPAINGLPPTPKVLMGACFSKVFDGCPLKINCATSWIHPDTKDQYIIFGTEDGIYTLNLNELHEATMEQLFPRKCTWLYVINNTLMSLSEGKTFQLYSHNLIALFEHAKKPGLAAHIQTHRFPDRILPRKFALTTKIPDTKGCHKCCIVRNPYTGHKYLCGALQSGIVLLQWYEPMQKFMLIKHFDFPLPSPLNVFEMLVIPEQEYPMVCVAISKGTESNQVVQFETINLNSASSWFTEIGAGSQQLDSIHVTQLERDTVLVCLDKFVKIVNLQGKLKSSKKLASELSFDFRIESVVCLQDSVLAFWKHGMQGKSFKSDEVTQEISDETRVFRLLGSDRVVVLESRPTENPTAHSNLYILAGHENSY
Chain of PRKCB2 (human) (P05771 whole entry, looked up): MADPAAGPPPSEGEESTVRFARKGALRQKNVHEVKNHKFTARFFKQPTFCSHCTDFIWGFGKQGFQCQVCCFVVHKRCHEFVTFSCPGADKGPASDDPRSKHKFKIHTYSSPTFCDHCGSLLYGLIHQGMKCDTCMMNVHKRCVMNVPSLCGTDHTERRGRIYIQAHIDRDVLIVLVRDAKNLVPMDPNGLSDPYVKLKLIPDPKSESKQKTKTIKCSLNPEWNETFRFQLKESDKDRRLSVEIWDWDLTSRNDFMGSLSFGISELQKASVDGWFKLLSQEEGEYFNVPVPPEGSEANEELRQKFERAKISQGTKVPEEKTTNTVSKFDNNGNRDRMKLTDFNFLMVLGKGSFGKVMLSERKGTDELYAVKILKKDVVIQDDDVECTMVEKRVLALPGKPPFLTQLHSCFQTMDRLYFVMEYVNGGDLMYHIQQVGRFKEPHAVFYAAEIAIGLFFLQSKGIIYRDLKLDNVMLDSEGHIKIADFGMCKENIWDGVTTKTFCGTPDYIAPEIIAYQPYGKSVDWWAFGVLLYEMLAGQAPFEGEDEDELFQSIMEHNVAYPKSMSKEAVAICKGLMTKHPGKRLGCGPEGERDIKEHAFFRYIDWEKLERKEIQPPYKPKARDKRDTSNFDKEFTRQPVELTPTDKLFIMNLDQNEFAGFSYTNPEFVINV
Chain of RIPK2 (human) (O43353 whole entry, looked up): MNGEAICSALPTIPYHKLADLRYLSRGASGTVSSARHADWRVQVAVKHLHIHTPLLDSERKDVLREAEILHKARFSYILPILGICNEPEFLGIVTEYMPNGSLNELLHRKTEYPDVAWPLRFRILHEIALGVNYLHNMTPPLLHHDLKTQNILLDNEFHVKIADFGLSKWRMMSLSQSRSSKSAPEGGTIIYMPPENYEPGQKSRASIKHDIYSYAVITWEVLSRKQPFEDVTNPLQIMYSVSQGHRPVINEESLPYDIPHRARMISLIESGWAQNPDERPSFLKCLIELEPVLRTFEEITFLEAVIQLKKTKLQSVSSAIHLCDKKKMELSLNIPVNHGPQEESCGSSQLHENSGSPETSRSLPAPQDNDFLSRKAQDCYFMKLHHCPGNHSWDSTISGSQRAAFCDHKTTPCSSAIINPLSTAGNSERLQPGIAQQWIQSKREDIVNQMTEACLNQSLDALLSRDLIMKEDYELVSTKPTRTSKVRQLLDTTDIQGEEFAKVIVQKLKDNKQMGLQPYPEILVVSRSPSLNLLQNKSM
Chain of WEE1 (human) (P30291 whole entry, looked up): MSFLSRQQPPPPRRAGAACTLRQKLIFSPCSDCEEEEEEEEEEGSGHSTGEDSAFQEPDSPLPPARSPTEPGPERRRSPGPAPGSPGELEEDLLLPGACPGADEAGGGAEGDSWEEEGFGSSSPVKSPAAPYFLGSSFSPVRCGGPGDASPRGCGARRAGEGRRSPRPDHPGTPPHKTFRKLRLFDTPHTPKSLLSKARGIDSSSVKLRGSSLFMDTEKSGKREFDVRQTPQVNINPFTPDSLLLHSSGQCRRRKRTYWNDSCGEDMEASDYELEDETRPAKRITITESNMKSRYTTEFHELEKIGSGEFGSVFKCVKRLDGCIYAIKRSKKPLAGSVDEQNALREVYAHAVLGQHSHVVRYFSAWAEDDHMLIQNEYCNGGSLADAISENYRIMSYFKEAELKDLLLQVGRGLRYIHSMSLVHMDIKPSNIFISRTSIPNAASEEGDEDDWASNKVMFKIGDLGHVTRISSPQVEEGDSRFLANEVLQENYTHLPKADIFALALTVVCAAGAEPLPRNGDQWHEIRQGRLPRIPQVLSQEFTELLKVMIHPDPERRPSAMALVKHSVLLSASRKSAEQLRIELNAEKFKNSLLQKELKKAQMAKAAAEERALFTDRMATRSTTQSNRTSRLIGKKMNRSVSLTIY
Chain of CAMK1G (human) (Q96NX5 whole entry, looked up): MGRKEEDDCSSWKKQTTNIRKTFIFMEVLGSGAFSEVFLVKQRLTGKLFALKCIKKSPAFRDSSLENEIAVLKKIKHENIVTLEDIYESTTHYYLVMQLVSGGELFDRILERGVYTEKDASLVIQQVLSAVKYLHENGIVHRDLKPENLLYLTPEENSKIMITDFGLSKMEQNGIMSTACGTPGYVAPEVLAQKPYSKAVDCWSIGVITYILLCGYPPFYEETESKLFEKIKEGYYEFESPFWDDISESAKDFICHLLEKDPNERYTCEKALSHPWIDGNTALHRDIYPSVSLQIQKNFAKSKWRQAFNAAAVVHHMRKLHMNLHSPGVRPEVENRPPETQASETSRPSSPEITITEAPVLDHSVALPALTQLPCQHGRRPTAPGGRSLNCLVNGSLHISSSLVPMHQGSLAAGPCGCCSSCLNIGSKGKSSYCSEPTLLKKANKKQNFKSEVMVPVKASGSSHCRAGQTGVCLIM
Chain of AKT3 (human) (Q9Y243 whole entry, looked up): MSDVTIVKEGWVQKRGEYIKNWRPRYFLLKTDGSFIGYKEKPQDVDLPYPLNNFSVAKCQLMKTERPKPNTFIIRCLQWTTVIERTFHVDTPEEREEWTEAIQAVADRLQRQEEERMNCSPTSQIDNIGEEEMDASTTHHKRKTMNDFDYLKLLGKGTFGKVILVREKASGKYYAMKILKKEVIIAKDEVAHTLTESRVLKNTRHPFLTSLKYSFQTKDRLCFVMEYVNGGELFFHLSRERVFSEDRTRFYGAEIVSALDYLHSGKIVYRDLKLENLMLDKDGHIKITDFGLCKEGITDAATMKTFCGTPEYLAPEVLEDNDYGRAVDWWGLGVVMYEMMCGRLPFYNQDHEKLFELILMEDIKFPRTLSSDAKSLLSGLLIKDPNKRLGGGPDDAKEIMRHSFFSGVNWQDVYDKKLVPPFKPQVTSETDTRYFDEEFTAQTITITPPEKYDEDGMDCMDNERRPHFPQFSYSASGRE

Row | Compound | residual activity (DAPK3 (human)) | residual activity (MAP4K5 (human)) | residual activity (BLK (human)) | residual activity (EPHA7 (human)) | residual activity (SIK2 (human)) | residual activity (AKT3 (human)) | residual activity (RPS6KA2 KD1 KD2 (human)) | residual activity (NEK2 (human)) | residual activity (CDK3 CCNE1 (human)) | residual activity (ROS1 (human)) | residual activity (BRSK1 (human)) | residual activity (ACVR1 (human)) | residual activity (RPS6KA5 KD2 (human)) | residual activity (NEK3 (human)) | residual activity (RIPK2 (human)) | residual activity (CSNK1D (human)) | residual activity (PBK (human)) | residual activity (PRKCB2 (human)) | residual activity (DYRK1B (human)) | residual activity (GRK4 (human)) | also measured
1 | CCN(CC)CCNC(=O)c1c(C)[nH]c(/C=C2\C(=O)Nc3ccc(F)cc32)c1C | 74.2% | 4.06% | 28.7% | 50.8% | 27.8% | 71.7% | 17.3% | 106% | 91% | 71.6% | 45.1% | 121% | 60.1% | 91.6% | 104% | 31.8% | 106% | 104% | 60% | 75.8% | residual activity (DYRK1A (human)): 56.9%; residual activity (IGF1R (human)): 62.6%; residual activity (CSNK2A1 (human)): 121%; residual activity (MAPK11 (human)): 99.9%; residual activity (DYRK4 (human)): 104%; residual activity (CDC42BPB (human)): 101%; residual activity (MYLK2 (human)): 7.74%; residual activity (CDK7 CCNH MNAT1 (human)): 73.4%; residual activity (FGFR4 (human)): 92.5%; residual activity (TSSK1B (human)): 20.7%; residual activity (PLK3 (human)): 96.5%; residual activity (WEE1 (human)): 91.8%; residual activity (FLT3 (human)): 2.71%; residual activity (EPHA5 (human)): 87.6%; residual activity (ADRBK2 (human)): 94.8%; residual activity (TLK2 (human)): 63.3%; residual activity (SGK3 (human)): 101%
2 | Cc1ccc(S(=O)(=O)/C=C/C#N)cc1 | 97.4% | 97.8% | 103% | 99.8% | 106% | 93.7% | 100% | 101% | 99.7% | 94.1% | 97.2% | 101% | 109% | 108% | 93.8% | 103% | 83.2% | 104% | 101% | 96.8% | residual activity (ABL1 (human)): 98.7%; residual activity (DYRK1A (human)): 107%; residual activity (CSNK1G2 (human)): 98.6%; residual activity (CAMK1G (human)): 99.9%; residual activity (CDK5 CDK5R1 p25 (human)): 86.8%; residual activity (IGF1R (human)): 93.5%; residual activity (CSNK2A1 (human)): 94.3%; residual activity (MAPK11 (human)): 102%; residual activity (DYRK4 (human)): 95.1%; residual activity (CDC42BPB (human)): 96.4%; residual activity (MYLK2 (human)): 105%; residual activity (CDK7 CCNH MNAT1 (human)): 98.2%; residual activity (FGFR4 (human)): 94.3%; residual activity (TSSK1B (human)): 97.4%; residual activity (PLK3 (human)): 97.1%; residual activity (WEE1 (human)): 96.4%; residual activity (FLT3 (human)): 100%; residual activity (EPHA5 (human)): 111%; residual activity (ADRBK2 (human)): 99.1%; residual activity (SGK3 (human)): 108%
3 | CC#CC(=O)Nc1cc2c(Nc3ccc(F)c(Cl)c3)ncnc2cn1 | 97.8% | 100% | 21.3% | 91.3% | 81.3% | 97.8% | 105% | 103% | 96.8% | 91.3% | 102% | 105% | 103% | 76.2% | 38.7% | 99.3% | 99.9% | 99.5% | 103% | 104% | residual activity (ABL1 (human)): 97.8%; residual activity (DYRK1A (human)): 96.4%; residual activity (CSNK1G2 (human)): 94.9%; residual activity (CAMK1G (human)): 99.2%; residual activity (CDK5 CDK5R1 p25 (human)): 99.2%; residual activity (IGF1R (human)): 100%; residual activity (CSNK2A1 (human)): 90.9%; residual activity (MAPK11 (human)): 96.2%; residual activity (DYRK4 (human)): 98%; residual activity (CDC42BPB (human)): 96.4%; residual activity (MYLK2 (human)): 99.9%; residual activity (CDK7 CCNH MNAT1 (human)): 101%; residual activity (FGFR4 (human)): 102%; residual activity (TSSK1B (human)): 104%; residual activity (PLK3 (human)): 100%; residual activity (WEE1 (human)): 93.2%; residual activity (FLT3 (human)): 92.1%; residual activity (EPHA5 (human)): 101%; residual activity (ADRBK2 (human)): 103%; residual activity (SGK3 (human)): 100%
4 | Cc1ccc(Nc2nccc(N(C)c3ccc4c(C)n(C)nc4c3)n2)cc1S(N)(=O)=O | 92.3% | 30.3% | 75.6% | 94.1% | 84.1% | 93.3% | 93.2% | 110% | 93.5% | 17% | 97.2% | 104% | 101% | 94.2% | 68.2% | 95.4% | 101% | 96.7% | 93.3% | 91.7% | residual activity (CSNK1G2 (human)): 96.9%; residual activity (CDK5 CDK5R1 p25 (human)): 95.1%; residual activity (CSNK2A1 (human)): 114%; residual activity (MAPK11 (human)): 93.3%; residual activity (DYRK4 (human)): 106%; residual activity (CDC42BPB (human)): 99.9%; residual activity (CDK7 CCNH MNAT1 (human)): 103%; residual activity (FGFR4 (human)): 68.3%; residual activity (TSSK1B (human)): 99%; residual activity (PLK3 (human)): 101%; residual activity (WEE1 (human)): 95.3%; residual activity (FLT3 (human)): 40.7%; residual activity (EPHA5 (human)): 99.7%; residual activity (ADRBK2 (human)): 99.3%; residual activity (TLK2 (human)): 85.6%; residual activity (SGK3 (human)): 97.5%
5 | Nc1cccc(-c2cc3c(Oc4cccc(O)c4)ncnc3[nH]2)c1 | 94% | 18.4% | 38.1% | 77.2% | 69.4% | 96.2% | 91.5% | 98% | 82.3% | 39.7% | 83.1% | 183% | 83.6% | 57.5% | 30.5% | 96.8% | 93.9% | 97.5% | 100% | 94.7% | residual activity (ABL1 (human)): 5.5%; residual activity (DYRK1A (human)): 103%; residual activity (CSNK1G2 (human)): 84.9%; residual activity (CAMK1G (human)): 99%; residual activity (CDK5 CDK5R1 p25 (human)): 114%; residual activity (IGF1R (human)): 99.5%; residual activity (CSNK2A1 (human)): 96.8%; residual activity (MAPK11 (human)): 108%; residual activity (DYRK4 (human)): 101%; residual activity (CDC42BPB (human)): 93.5%; residual activity (MYLK2 (human)): 29.9%; residual activity (CDK7 CCNH MNAT1 (human)): 94.2%; residual activity (FGFR4 (human)): 45.1%; residual activity (TSSK1B (human)): 91.1%; residual activity (PLK3 (human)): 95.7%; residual activity (WEE1 (human)): 85.5%; residual activity (FLT3 (human)): 30.7%; residual activity (EPHA5 (human)): 41.7%; residual activity (ADRBK2 (human)): 101%; residual activity (SGK3 (human)): 117%
